ChEMBL document CHEMBL5131525, “Novel CFTR Modulators for Treating Cystic Fibrosis” (ACS Med Chem Lett, 2022)
pEC50: −log10 of the molar value.

molecular target: Cystic fibrosis transmembrane conductance regulator (Homo sapiens, UniProt P13569, F508DEL); test: Modulation of CFTR F508 deletion mutant expressed in HBE cells assessed as change in short circuit current incubated for 18 to 24 hrs in presence of forskolin, amiloride and human serum by voltage-clamp based chamber assay; assay type: cell-based
Sequence (P13569 as listed by the source): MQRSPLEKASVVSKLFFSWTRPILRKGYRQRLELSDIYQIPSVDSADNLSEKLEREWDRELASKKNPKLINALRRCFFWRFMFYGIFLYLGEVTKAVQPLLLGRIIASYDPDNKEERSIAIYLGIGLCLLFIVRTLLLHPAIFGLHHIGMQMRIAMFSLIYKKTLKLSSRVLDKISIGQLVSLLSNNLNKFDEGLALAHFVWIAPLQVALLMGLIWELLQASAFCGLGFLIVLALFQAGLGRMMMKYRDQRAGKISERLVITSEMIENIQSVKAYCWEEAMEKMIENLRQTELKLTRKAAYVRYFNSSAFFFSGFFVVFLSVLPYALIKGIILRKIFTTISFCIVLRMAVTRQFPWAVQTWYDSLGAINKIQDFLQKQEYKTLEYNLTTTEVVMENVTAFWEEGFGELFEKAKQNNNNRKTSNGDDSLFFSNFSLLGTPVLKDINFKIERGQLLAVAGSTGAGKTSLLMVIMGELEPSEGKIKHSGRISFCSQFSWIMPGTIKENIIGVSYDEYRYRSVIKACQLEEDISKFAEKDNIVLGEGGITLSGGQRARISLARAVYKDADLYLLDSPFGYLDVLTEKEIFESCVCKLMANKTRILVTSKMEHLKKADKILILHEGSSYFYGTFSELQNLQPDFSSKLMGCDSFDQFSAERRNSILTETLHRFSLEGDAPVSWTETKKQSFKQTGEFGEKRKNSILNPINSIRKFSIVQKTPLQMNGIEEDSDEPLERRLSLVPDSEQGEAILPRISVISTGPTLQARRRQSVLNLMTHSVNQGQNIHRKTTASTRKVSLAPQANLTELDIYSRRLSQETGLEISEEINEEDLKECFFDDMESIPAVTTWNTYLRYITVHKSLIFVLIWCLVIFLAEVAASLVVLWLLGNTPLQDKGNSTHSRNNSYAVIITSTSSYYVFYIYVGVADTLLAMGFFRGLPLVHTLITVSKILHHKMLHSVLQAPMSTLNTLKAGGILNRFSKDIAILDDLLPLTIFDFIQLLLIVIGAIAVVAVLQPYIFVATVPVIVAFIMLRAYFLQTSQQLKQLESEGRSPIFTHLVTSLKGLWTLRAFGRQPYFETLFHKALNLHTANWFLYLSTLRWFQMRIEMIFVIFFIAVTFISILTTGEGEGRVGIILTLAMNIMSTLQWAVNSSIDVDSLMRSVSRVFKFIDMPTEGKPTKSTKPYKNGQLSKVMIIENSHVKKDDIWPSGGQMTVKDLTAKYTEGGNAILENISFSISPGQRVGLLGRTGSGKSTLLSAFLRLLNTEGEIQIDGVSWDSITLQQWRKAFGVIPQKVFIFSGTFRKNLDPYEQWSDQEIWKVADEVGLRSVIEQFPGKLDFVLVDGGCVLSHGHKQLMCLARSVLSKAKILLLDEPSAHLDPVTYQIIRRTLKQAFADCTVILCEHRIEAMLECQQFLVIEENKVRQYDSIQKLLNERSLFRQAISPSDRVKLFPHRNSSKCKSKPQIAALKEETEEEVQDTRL

Row | SMILES | pEC50
1 | [2H]C1CC[C@@H](C)Oc2nc(c(N)cc2C(F)(F)F)C2=NN=C(O2)[C@@](O)(C(F)(F)F)CC1[2H] (stereo partly specified) | > 6.30
2 | C[C@H]1CCCCC[C@](O)(C(F)(F)F)C2=NN=C(O2)c2nc(c(C(F)(F)F)cc2N)O1 | > 6.30
3 | Nc1cc(C(F)(F)F)c2nc1-c1nnc(o1)C(O)(C(F)(F)F)CCCCCCO2 (stereo unspecified) | > 6.30
4 | Nc1cc(C(F)(F)F)c2nc1-c1nnc(o1)[C@@](O)(C(F)(F)F)CCCCCCS2 | > 6.30
5 | Nc1cc(C(F)(F)F)c2nc1-c1nnc(o1)[C@@](O)(C(F)(F)F)CCCCC[C@H](CO)O2 | > 6.30
6 | CC1(C)CCCC[C@](O)(C(F)(F)F)C2=NN=C(O2)c2nc(c(C(F)(F)F)cc2N)OC1 | > 6.30
